Assay results: the supplement of paper PMC4862054
Several values for one entry are separate records, joined by “and”; a condition that tells them apart may be missing. Equal entries are not always repeated.

Tests used:
CAL-148 [1] = test: normalised viability (% of control), CellTiter-Blue; higher = more viable cells (about 100 = DMSO control); conditions: 1000 nM; incubation time: 72 h
Method: (§1)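 DSRT, CellTiter-Blue viability, 72 h incubation. Signal is normalised to DMSO and benzethonium chloride controls. Value is the normalised response at dose 9.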

CAL-85-1 [2] = test: as above; conditions: 1000 nM; incubation time: 72 h
Method: as §1

DU-4475 [3] = test: as above; conditions: 1000 nM; incubation time: 72 h
Method: as §1

HDQ-P1 [4] = test: as above; conditions: 1000 nM; incubation time: 72 h
Method: as §1

BT-549 = test: normalised viability (% of control), CellTiter-Blue; higher = more viable cells (100 = DMSO, 0 = benzethonium chloride kill control); conditions: 0.1 nM; incubation time: 72 h
Method: (§2)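 DSRT, CellTiter-Blue viability, 72 h incubation. Signal is normalised to DMSO and benzethonium chloride controls. Value is the normalised response at dose 1.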

CAL-120 [5] = test: as above; conditions: 0.1 nM; incubation time: 72 h
Method: as §2

CAL-148 [6] = test: as above; conditions: 0.1 nM; incubation time: 72 h
Method: as §2

CAL-51 = test: as above; conditions: 0.1 nM; incubation time: 72 h
Method: as §2

CAL-85-1 [7] = test: as above; conditions: 0.1 nM; incubation time: 72 h
Method: as §2

DU-4475 [8] = test: as above; conditions: 0.1 nM; incubation time: 72 h
Method: as §2

HCC1599 [9] = test: as above; conditions: 0.1 nM; incubation time: 72 h
Method: as §2

HCC1937 [10] = test: as above; conditions: 0.1 nM; incubation time: 72 h
Method: as §2

HDQ-P1 [11] = test: as above; conditions: 0.1 nM; incubation time: 72 h
Method: as §2

Hs578T = test: as above; conditions: 0.1 nM; incubation time: 72 h
Method: as §2

MDA-MB-231 = test: as above; conditions: 0.1 nM; incubation time: 72 h
Method: as §2

MDA-MB-436 = test: as above; conditions: 0.1 nM; incubation time: 72 h
Method: as §2

MDA-MB-453 = test: as above; conditions: 0.1 nM; incubation time: 72 h
Method: as §2

MDA-MB-468 = test: as above; conditions: 0.1 nM; incubation time: 72 h
Method: as §2

MFM-223 = test: as above; conditions: 0.1 nM; incubation time: 72 h
Method: as §2

SK-BR-3 = test: as above; conditions: 0.1 nM; incubation time: 72 h
Method: as §2

BT-474 [12] = test: drug sensitivity score (DSS), CellTox Green (DSS (AUC-based score)); higher = stronger drug effect (viability inhibition or cytotoxicity); extreme values may be limits of the assay; conditions: incubation time: 72 h
Method in brief: (§3)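 The drug sensitivity score reflects the area under a fitted dose-response curve. To obtain it, breast cancer cells in 20 µl suspension were seeded into 384-well plates containing compound at 5 concentrations, 10-fold apart over a compound-specific 10,000-fold range, and incubated 72 h. CellTox Green fluorescence (485/520 nm) was read first and CellTiter-Glo luminescence second, after 10 min at room temperature. Each plate was normalised to 0.1 % DMSO and a positive kill control.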

CAL-120 [13] = test: as above; conditions: incubation time: 72 h
Method in brief: as §3

HCC1599 [14] = test: as above; conditions: incubation time: 72 h
Method in brief: as §3

HCC1937 [15] = test: as above; conditions: incubation time: 72 h
Method in brief: as §3

HDQ-P1 [16] = test: as above; conditions: incubation time: 72 h
Method in brief: as §3

MCF-10A = test: as above; conditions: incubation time: 72 h
Method in brief: as §3

BT-474 [17] = test: normalised viability (% of control), CellTiter-Blue; higher = more viable cells (100 = DMSO, 0 = benzethonium chloride kill control); conditions: 0.1 nM; incubation time: 72 h
Method: as §2

HCC1143 = test: as above; conditions: 0.1 nM; incubation time: 72 h
Method: as §2

SMILES | normalised viability (CAL-148 [1]) | normalised viability (CAL-85-1 [2]) | normalised viability (DU-4475 [3]) | normalised viability (HDQ-P1 [4]) | normalised viability (BT-549) | normalised viability (CAL-120 [5]) | normalised viability (CAL-148 [6]) | normalised viability (CAL-51) | normalised viability (CAL-85-1 [7]) | normalised viability (DU-4475 [8]) | normalised viability (HCC1599 [9]) [%] | normalised viability (HCC1937 [10]) | normalised viability (HDQ-P1 [11]) | normalised viability (Hs578T) | normalised viability (MDA-MB-231) | normalised viability (MDA-MB-436) | normalised viability (MDA-MB-453) | normalised viability (MDA-MB-468) | normalised viability (MFM-223) | normalised viability (SK-BR-3) | drug sensitivity score (BT-474 [12]) | drug sensitivity score (CAL-120 [13]) | drug sensitivity score (HCC1599 [14]) | drug sensitivity score (HCC1937 [15]) | drug sensitivity score (HDQ-P1 [16]) | drug sensitivity score (MCF-10A) | normalised viability (BT-474 [17]) [%] | normalised viability (HCC1143) [%]
CO[C@H]1C[C@@H]2CC[C@@H](C)[C@@](O)(O2)C(=O)C(=O)N2CCCC[C@H]2C(=O)O[C@H]([C@H](C)C[C@@H]2CC[C@@H](OCCO)[C@H](OC)C2)CC(=O)[C@H](C)/C=C(\C)[C@@H](O)[C@@H](OC)C(=O)[C@H](C)C[C@H](C)/C=C/C=C/C=C/1C [Everolimus] | 38% and 16.3% | 62% and 43% | 61.8% and 39.1% | 76.8% and 59.4% | 81% and 93% | 97.4% and 80.8% | 93.9% and 95.7% | 99.3% and 104% | 89.2% and 76.6% | 106% and 105% | 101 | 58% and 70.5% | 87.3% and 89.8% | 58.9% and 73.8% | 94.9% and 73.3% | 104% and 86.3% | 93.7% and 90% | 105% and 87.7% | 85% and 84% | 95.7% and 89.7% | 0 | 0 | 0 | 0 | 0 | 0 | – | –
O=C1NC(=O)[C@@H](c2cn3c4c(cccc24)CCC3)[C@@H]1c1c[nH]c2ccccc12 [Tivantinib] | 30.5% | 33.9% | 36.9% | 53% | 105% | 90.1% | 110% | 106% | 101% | 107% | 85.6 | 86.3% | 83.2% | 101% | 111% | 127% | 101% | 110% | 85.6% | 95% | 0 | 1.28 | 0 | 0 | 0 | 0 | 128 | 108
